Test results reported in patent US5698551A, “Heterocyclic compounds” (Novo Nordisk A/S, priority 1995, dated 1997).

Test system: NMRI female mice
Assay: Inhibition of formalin induced pain response in mice
Assay type: in vivo
Conditions: at 0.1 mg/kg, 1% formalin into left hind paw
Method: Formalin induced pain or paw oedema
Values for in vivo inhibition of formalin induced pain or oedema for the compounds of the present invention were assessed in mice essentially by the method of Wheeler-Aceto and Cowan (Agents Action 1991, 34, 265-269).
About 20 g NMRI female mice were injected […] 1% formalin into the left hind paw. The animals were then placed on a heated (31° C.) table, and the pain response was scored. After 1 h they were killed and bled. Left and right hind paws were removed and the weight difference between the paws was used as indication of the oedema response of the formalin injected paw.
Values for inhibition of formalin induced pain response for some representative compounds are recorded in table 1.

Compound | % Pain inhibition (inhibition of formalin induced pain response)
Cl.O=C(O)[C@@H]1CCCN(CCCN2C(=O)c3ccccc3Nc3ccccc32)C1 [Example 1, (R)-1-(3-(11-Oxo-10,11-dihydro-5H-dibenzo[b,e][1,4]diazepin-10-yl)-1-propyl)-3-piperidinecarboxylic acid hydrochloride] | 13%
Cl.O=C(O)[C@@H]1CCCN(CCCN2C(=O)c3ccccc3CCc3ccccc32)C1 [Example 2, (R)-1-(3-(6-Oxo-11,12-dihydro-5H-dibenz[b,f]azocin-5-yl)-1-propyl)-3-piperidinecarboxylic acid hydrochloride] | 34%
Cl.O=C(O)[C@@H]1CCCN(CCCN2Cc3ccccc3Cc3ccccc32)C1 [Example 3, (R)-1-(3-(6,11-Dihydro-5H-dibenz[b,e]azepin-5-yl)-1-propyl)-3-piperidine-carboxylic acid hydrochloride] | 36%
Cl.O=C(O)[C@@H]1CCCN(CCCn2c(=O)c3ccccc3c(=O)c3ccccc32)C1 [Example 4, (R)-1-(3-(6,11-Dioxo-6,11-dihydro-5H-dibenz[b,e]azepin-5-yl)-1-propyl)-3-piperidine-carboxylic acid hydrochloride] | 28%
Cl.Cl.O=C(O)[C@@H]1CCCN(CCCN2Cc3ccccc3CCc3ccccc32)C1 [Example 6, (R)-1-(3-(5,6,11,12-Tetrahydro-dibenz[b,f]azocin-5-yl)-1-propyl)-3-piperidinecarboxylic acid dihydrochloride] | 22%
